# Tests used:
# BRD4 BD1 = molecular target: T1, BRD4 BD1 (Homo sapiens, UniProt O60885); experiment: AlphaScreen binding assay, BRD4 Bromodomain 1
# T1 construct: made in house
# Procedure, shortened: (§1)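 An AlphaScreen competition format was used with His-BRD4 BD1 or BD2 and biotin-H4 K5/8/12/16-acetyl peptide, each at matched final levels of 50 nM (BD1) or 100 nM (BD2). Incubation in HEPES/NaCl buffer with 0.1% BSA and 0.01% Triton X-100 ran ≥1 h before IC50 determination.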
# BRD4 BD2 = molecular target: T2, BRD4 BD2 (Homo sapiens, UniProt O60885); experiment: AlphaScreen binding assay, BRD4 Bromodomain 2
# T2 construct: made in house
# Procedure, shortened: as §1
Compound,IC50 (BRD4 BD1),IC50 (BRD4 BD2)
CC(=O)N1c2ccc(-c3cnn(CCO)c3)cc2N(C(=O)Oc2ccc(F)cc2F)C[C@@H]1C [Example I-1009],1000 to 10000 nM,50 to 500 nM
CC(=O)N1c2ccc(-c3ccc(S(C)(=O)=O)cc3)cc2N(C(=O)Oc2ccc(F)cc2F)C[C@@H]1C [Example I-1010],1000 to 10000 nM,50 to 500 nM
COC(=O)N1c2ccc(-c3cnn(CCO)c3)cc2N(C(=O)Oc2ccc(F)cc2)C[C@@H]1C [Example I-1022],1000 to 10000 nM,50 to 500 nM
CC(=O)N1c2ccc(-c3cnn(C4CC4)c3)cc2N(C(=O)Oc2ncccc2C(F)(F)F)C[C@@H]1C [Example I-1188],> 10000 nM,> 500 nM
CC(=O)N1c2ccc(-c3cnn(C4CC4)c3)cc2N(C(=O)Oc2ccc(Cl)cc2Cl)C[C@@H]1C [Example I-1193],1000 to 10000 nM,50 to 500 nM
CC(=O)N1c2ccc(-c3cnn(C4CC4)c3)cc2N(C(=O)Oc2c(Cl)cc(Cl)c3cccnc23)C[C@@H]1C [Example I-1197],1000 to 10000 nM,50 to 500 nM
CC(=O)N1c2ccc(-c3cnn(C4CC4)c3)cc2N(C(=O)Oc2cc(F)ccc2C)C[C@@H]1C [Example I-1200],1000 to 10000 nM,50 to 500 nM
COc1ncc(F)cc1OC(=O)N1C[C@H](C)N(C(C)=O)c2ccc(-c3cnn(C4CC4)c3)cc21 [Example I-1208],1000 to 10000 nM,50 to 500 nM
COc1cc(OC(=O)N2C[C@H](C)N(C(C)=O)c3ccc(-c4cnn(C5CC5)c4)cc32)c(Cl)cn1 [Example I-1209],1000 to 10000 nM,50 to 500 nM
COc1ncc(C)cc1OC(=O)N1C[C@H](C)N(C(C)=O)c2ccc(-c3cnn(C4CC4)c3)cc21 [Example I-1210],1000 to 10000 nM,50 to 500 nM
COC(=O)N1c2ccc(-c3ccc(S(C)(=O)=O)cc3)cc2N(C(=O)Oc2cccnc2)C[C@@H]1C [Example I-1276],1000 to 10000 nM,50 to 500 nM
COC(=O)N1c2ccc(-c3cnn(CCO)c3)cc2N(C(=O)Oc2cccnc2)C[C@@H]1C [Example I-1282],1000 to 10000 nM,> 500 nM
COC(=O)N1c2ccc(-c3cnn(C4CC4)c3)cc2N(C(=O)Oc2cccnc2)C[C@@H]1C [Example I-1283],1000 to 10000 nM,50 to 500 nM
COC(=O)N1c2ccc(-c3cnn(C(C)(C)CO)c3)cc2N(C(=O)Oc2cccnc2)C[C@@H]1C [Example I-1285],1000 to 10000 nM,50 to 500 nM
COC(=O)N1c2ccc(-c3ccc(N4CCCS4(=O)=O)cc3)cc2N(C(=O)Oc2cccnc2)C[C@@H]1C [Example I-1287],1000 to 10000 nM,> 500 nM
CC(=O)N1c2ccc(-c3cnn(CCC#N)c3)cc2N(C(=O)Oc2cccnc2)C[C@@H]1C [Example I-1288],1000 to 10000 nM,50 to 500 nM

# The remaining lines, values ahead:
IC50 (BRD4 BD1),IC50 (BRD4 BD2),Compound
1000 to 10000 nM,50 to 500 nM,COC(=O)N1c2ccc(-c3cnn(C4CC4)c3)cc2N(C(=O)OC2COC2)C[C@@H]1C [Example I-999]
1000 to 10000 nM,> 500 nM,CC(=O)N1c2ccc(-c3cnn(CCS(C)(=O)=O)c3)cc2N(C(=O)Oc2ccc(F)cc2)C[C@@H]1C [Example I-1017]
1000 to 10000 nM,50 to 500 nM,CC(=O)N1c2ccc(-c3cnn(C4CC4)c3)cc2N(C(=O)Oc2cnc3ccccc3c2)C[C@@H]1C [Example I-1203]
1000 to 10000 nM,50 to 500 nM,CC(=O)N1c2ccc(-c3ccc(NS(C)(=O)=O)cc3)cc2N(C(=O)Oc2cccnc2)C[C@@H]1C [Example I-1277]
1000 to 10000 nM,> 500 nM,COC(=O)N1c2ccc(-c3ccc(NS(C)(=O)=O)cc3)cc2N(C(=O)Oc2cccnc2)C[C@@H]1C [Example I-1278]
1000 to 10000 nM,50 to 500 nM,COC(=O)N1c2ccc(-c3cnn(CCS(C)(=O)=O)c3)cc2N(C(=O)Oc2cccnc2)C[C@@H]1C [Example I-1280]
1000 to 10000 nM,50 to 500 nM,COC(=O)N1c2ccc(-c3cnn(CCC#N)c3)cc2N(C(=O)Oc2cccnc2)C[C@@H]1C [Example I-1289]

# From US10703764B2, “Benzopiperazine compositions as BET bromodomain inhibitors” (FORMA Therapeutics, Inc., priority 2013, dated 2020)
